According to patent US12589143B2, “Human anti-PD-L1 peptide vaccines and methods of their use” (priority 2019, dated 2026):
Values joined by “and” are separate entries in the source; they are usually repeats but may differ in a detail not shown here. Equal entries are not always repeated. Where no end group is shown, it is not given here.

Tested on: MVF-PD-L1 peptide immunogen
Test: Immunogenicity in Balb/c mice, experiment 1 (CT26 WT): ELISA of sera vs each MVF-PD-L1 peptide immunogen
Format: in vivo
Conditions: for Immunogenicity (titers) 1′ Conc. 1:: Balb/c mice
Method: Immunogenicity of MVF-PD-L1 B-cell epitopes. New Zealand White rabbits were immunized with 1 mg of each MVF-peptide immunogens dissolved in dd H2O emulsified (1:1) in Montanide ISA 720 vehicle (Seppic) with 333 μg of N-acetylglucosamine-3yl-acetyl-1-alanyl-d-isoglutamine (nor-MDP). Rabbits were boosted with the same doses at 3-week's intervals. Blood was collected via the central auricular artery in rabbits. Blood was collected weekly (1Y+3, 2Y+1, 2Y+2,2Y+3, 3Y+1, 3Y+2 and sera tested for antibody titers by ELISA using the immunogens MVF-PD-L1 peptides. Sera (terminal) from rabbit (3Y+3) immunized with MVF-PD-1 peptide immunogens were tested individually versus the immunogen by ELISA. 200 ng/well peptide were used in duplicates to coat the ELISA plates. Titers are defined as the highest dilution of sera with an absorbance value of 0.2 after subtracting the blank.
FIGS. 5A, 5B, 5C, and 5D show the experimental scheme to test the immunization with PD-L1 in Balb/c mice. […] Balb/c mice 6-8 weeks old, were immunized with MVF-peptide immunogens emulsified in ISA 720 with nor-MDP three times and three weeks apart. Mice were immunized with MVF-PD-L1 vaccine constructs [PD-L1(36-53), PD-L1(50-67), PD-L1(95-112), PD-L1(130-147)] prior to tumor challenge. Blood was collected weekly and sera tested for antibody titers by ELISA. Two weeks after the third immunization (3Y), the mice were engrafted with CT26 WT tumor cells 10^5 per mouse Control mice were treated twice weekly with PBS as negative control and twice weekly with anti-mPD-L1 mAb (10F.9G2) as positive control starting 2 days after tumor challenge. Tumor growths were observed twice weekly and measured by calipers.
Immunogenicity of MVF-PD-L1 peptides in BALB/c mice immunized with various peptide constructs. Sera collected weekly were tittered against each individual MVF-PD-L1 peptide immunogen. The Pink bar refers to titers versus PD-L1 130 and the red bar refers to titers versus PD-1 (92-110).
In order to verify the efficacy of the PD-L1 epitope vaccines in vivo in the CT26 carcinoma cell line, Balb/c mice (10 mice/group) were immunized with 100 μg each of MVF-PD-L1 (36-53), MVF-PD-L1 (50-67), MVF-PD-L1 (95-112) and MVF-PD-L1 (130-147) emulsified with nor-MDP and Montanide 720 (1:1 ratio) SCHEME 1A (FIG. 5A). As detailed in SCHEME 1A-D (FIGS. 5A, 5B, 5C, and 5D), mice were immunized 3 times at 3 weeks intervals. […] All PD-L1 epitopes elicited high titers of PD-L1 anti-peptide antibodies by ELISA. […] We also investigated the combination of PD-1(92-110) with PD-L1-130-147.
For each peptide, vaccine antibodies were raised in New Zealand white rabbits, purchased from Charles River Laboratories (Wilmington, MA, USA). Rabbits were immunized with 1 mg of MVF chimeric peptide emulsified in Montanide ISA 720 (Seppic, Paris, France) and boosted 3 times at three week intervals. For mouse experiments, mice, 6-8 weeks old, were immunized with 0.1 mg of peptide emulsified in ISA720 (1:1 ratio). Mice were boosted with the respective doses at 3-week intervals. Blood was then collected and sera were tested for antibody titers. Sera were collected weekly and peptide vaccine antibodies were purified by affinity chromatography using a protein A/G column and the concentration was measured using Spectrophometer. All experiments were performed in accordance with the U.S. Public Health Service Policy on Humane Care and Use of Laboratory animals and approved by the Ohio State University Institutional Animals Care and Use Committee, detailed in the accepted protocol.
6-8 weeks old BALB/c mice (Charles River, Wilmington, MA) were used as standard animal models. Mouse CT26 colon carcinoma cell line was purchased from American Type Culture Collection Cells and were regularly cultured in RPMI1640 medium containing 10% FBS. CT26/HER2 cells were kindly provided by M. Penichet. Vaccines were dissolved in sterile water and emulsified in Montanide ISA 720 (1:1). […]

KLLSLIKGVIVHRLEGVEGPSLFVHGEEDLKVQHSSYRQR (KLLSLIKGVIVHRLEGVEGPSLFVHGEEDLKVQHSSYRQR-NH2) [PD-L1(50)]
Immunogenicity (titers) 1′ Conc. 1: (bleed 1Y + 3): 6400
Immunogenicity (titers) 1′ Conc. 1: (bleed 2Y + 1): 12800
Immunogenicity (titers) 1′ Conc. 1: (bleed 2Y + 2): 12800
Immunogenicity (titers) 1′ Conc. 1: (bleed 2Y + 3): 12800
Immunogenicity (titers) 1′ Conc. 1: (bleed 3Y + 1): 128000
Immunogenicity (titers) 1′ Conc. 1: (bleed 3Y + 2): 128000
Immunogenicity (titers) 1′ Conc. 1: (bleed 3Y + 3): 128000
ELISA absorbance of sera (bleed 1Y + 3 (1to100), dilution 100, bleed 1Y + 3): 1.459 and 1.424
ELISA absorbance of sera (bleed 1Y + 3 (1to100), dilution 200, bleed 1Y + 3): 1.338 and 1.282
ELISA absorbance of sera (bleed 1Y + 3 (1to100), dilution 400, bleed 1Y + 3): 1.131 and 1.099
ELISA absorbance of sera (bleed 1Y + 3 (1to100), dilution 800, bleed 1Y + 3): 0.878 and 0.852
ELISA absorbance of sera (bleed 1Y + 3 (1to100), dilution 1,600, bleed 1Y + 3): 0.639 and 0.588
ELISA absorbance of sera (bleed 1Y + 3 (1to100), dilution 3,200, bleed 1Y + 3): 0.398 and 0.365
ELISA absorbance of sera (bleed 1Y + 3 (1to100), dilution 6,400, bleed 1Y + 3): 0.239 and 0.213
ELISA absorbance of sera (bleed 1Y + 3 (1to100), dilution 12,800, bleed 1Y + 3): 0.143 and 0.129
ELISA absorbance of sera (bleed 2Y + 1 (1to100), dilution 100, bleed 2Y + 1): 1.243 and 1.292
ELISA absorbance of sera (bleed 2Y + 1 (1to100), dilution 200, bleed 2Y + 1): 1.279 and 1.274
ELISA absorbance of sera (bleed 2Y + 1 (1to100), dilution 400, bleed 2Y + 1): 1.241 and 1.170
ELISA absorbance of sera (bleed 2Y + 1 (1to100), dilution 800, bleed 2Y + 1): 1.127 and 1.002
ELISA absorbance of sera (bleed 2Y + 1 (1to100), dilution 1,600, bleed 2Y + 1): 0.923 and 0.887
ELISA absorbance of sera (bleed 2Y + 1 (1to100), dilution 3,200, bleed 2Y + 1): 0.721 and 0.666
ELISA absorbance of sera (bleed 2Y + 1 (1to100), dilution 6,400, bleed 2Y + 1): 0.480 and 0.471
ELISA absorbance of sera (bleed 2Y + 1 (1to100), dilution 12,800, bleed 2Y + 1): 0.332 and 0.274
ELISA absorbance of sera (bleed 2Y + 2 (1to100), dilution 100): 1.298 and 1.343
ELISA absorbance of sera (bleed 2Y + 2 (1to100), dilution 200): 1.310 and 1.286
ELISA absorbance of sera (bleed 2Y + 2 (1to100), dilution 400): 1.241 and 1.190
ELISA absorbance of sera (bleed 2Y + 2 (1to100), dilution 800): 1.144 and 1.093
ELISA absorbance of sera (bleed 2Y + 2 (1to100), dilution 1,600): 0.964 and 0.893
ELISA absorbance of sera (bleed 2Y + 2 (1to100), dilution 3,200): 0.741 and 0.670
ELISA absorbance of sera (bleed 2Y + 2 (1to100), dilution 6,400): 0.519 and 0.487
ELISA absorbance of sera (bleed 2Y + 3 (1to1k), dilution 100): 1.054 and 1.076
ELISA absorbance of sera (bleed 2Y + 3 (1to1k), dilution 200): 1.008 and 1.012
ELISA absorbance of sera (bleed 2Y + 3 (1to1k), dilution 400): 0.952 and 0.915
ELISA absorbance of sera (bleed 2Y + 3 (1to1k), dilution 800): 0.827 and 0.819
ELISA absorbance of sera (bleed 2Y + 3 (1to1k), dilution 1,600): 0.708 and 0.703
ELISA absorbance of sera (bleed 2Y + 3 (1to1k), dilution 3,200): 0.534 and 0.514
ELISA absorbance of sera (bleed 2Y + 3 (1to1k), dilution 6,400): 0.351 and 0.332
ELISA absorbance of sera (bleed 3Y + 1 (1to1k), dilution 100, bleed 3Y + 1): 1.191 and 1.215
ELISA absorbance of sera (bleed 3Y + 1 (1to1k), dilution 200, bleed 3Y + 1): 1.138 and 1.143
ELISA absorbance of sera (bleed 3Y + 1 (1to1k), dilution 400, bleed 3Y + 1): 1.076 and 1.034
ELISA absorbance of sera (bleed 3Y + 1 (1to1k), dilution 800, bleed 3Y + 1): 0.935 and 0.925
ELISA absorbance of sera (bleed 3Y + 1 (1to1k), dilution 1,600, bleed 3Y + 1): 0.800 and 0.794
ELISA absorbance of sera (bleed 3Y + 1 (1to1k), dilution 3,200, bleed 3Y + 1): 0.603 and 0.581
ELISA absorbance of sera (bleed 3Y + 1 (1to1k), dilution 6,400, bleed 3Y + 1): 0.397 and 0.375
ELISA absorbance of sera (bleed 3Y + 2 (1to1k), dilution 100, bleed 3Y + 2): 1.608 and 1.586
ELISA absorbance of sera (bleed 3Y + 2 (1to1k), dilution 200, bleed 3Y + 2): 1.503 and 1.479
ELISA absorbance of sera (bleed 3Y + 2 (1to1k), dilution 400, bleed 3Y + 2): 1.384 and 1.401
ELISA absorbance of sera (bleed 3Y + 2 (1to1k), dilution 800, bleed 3Y + 2): 1.185 and 1.213
ELISA absorbance of sera (bleed 3Y + 2 (1to1k), dilution 1,600, bleed 3Y + 2): 0.961 and 0.959
ELISA absorbance of sera (bleed 3Y + 2 (1to1k), dilution 3,200, bleed 3Y + 2): 0.684 and 0.694
ELISA absorbance of sera (bleed 3Y + 2 (1to1k), dilution 6,400, bleed 3Y + 2): 0.462
ELISA absorbance of sera (bleed 3Y + 3 (1to1k), dilution 100, bleed 3Y + 3): 1.740 and 1.779
ELISA absorbance of sera (bleed 3Y + 3 (1to1k), dilution 200, bleed 3Y + 3): 1.596 and 1.638
ELISA absorbance of sera (bleed 3Y + 3 (1to1k), dilution 400, bleed 3Y + 3): 1.445 and 1.469
ELISA absorbance of sera (bleed 3Y + 3 (1to1k), dilution 800, bleed 3Y + 3): 1.181 and 1.217
ELISA absorbance of sera (bleed 3Y + 3 (1to1k), dilution 1,600, bleed 3Y + 3): 0.867 and 0.967
ELISA absorbance of sera (bleed 3Y + 3 (1to1k), dilution 3,200, bleed 3Y + 3): 0.621 and 0.629
ELISA absorbance of sera (bleed 3Y + 3 (1to1k), dilution 6,400, bleed 3Y + 3): 0.359
